Reference: US20180092894A1, “TREATMENT OF EOSINOPHILIC INFLAMMATORY DISEASE” (Northwestern University, priority 2016, published 2018)

Assays:
Assay type in all cases: cell-based, human
[1] = tested on: IL-13-induced eotaxin-3 protein secretion in BEAS-2B cells; experiment: IL-13-induced eotaxin-3 protein secretion in BEAS-2Bs (ELISA); settings: for effect on IL-13-induced eotaxin-3 protein secretion: 2 h pretreatment (1-50 μM), IL-13 5 ng/ml 48 h
Procedure: (§1) BEAS-2B, a human bronchial epithelial cell line transformed with a hybrid adenovirus 12-simian virus 40 was obtained from ATCC (CRL-9609, Manassas, Va.). Primary HNECs were collected by epithelial scraping of IT and NP and cultured. For cytokine (Peprotech, Rocky Hill, N.J.) stimulation, submerged cultured cells were treated with 1-100 ng/ml IL-13, 10 ng/ml IFN-γ, 100 ng/ml TNF or 50 ng/ml IL-17 for 6 h or 48 h. To study the effects of PPIs (Sigma-Aldrich, St Louis, Mo.) on cytokine-induced chemokines, cells were pretreated for 2 h with acid-activated omeprazole (0.1-50 μM) or other PPIs: lansoprazole, rabeprazole, pantoprazole, and esomeprazole (1-50 μM) prior to stimulation with 5 ng/ml IL-13. Additionally, SCH-28080 (1-50 μM; Sigma-Aldrich) was used with the same protocol. In experiments altering extracellular K^+ concentration ([K^+]e), modified Ringer's solution that contained different contents of K^+ (0-11.2 mM KCl, Table 4) was used as culture media. For mRNA stability assessment, actinomycin D (3 μg/ml, Sigma-Aldrich) was used and eotaxin-3 mRNA was measured using real-time PCR. Supernatants, whole cell lysates, and total RNAs were harvested for further analysis.
(§2) Eotaxin-1, eotaxin-2, and eotaxin-3 protein concentrations in supernatants were determined with the appropriate ELISA kits.

[2] = tested on: IL-13-induced intracellular alkalinization in BEAS-2B cells (ngH,K-ATPase); experiment: Intracellular pH (pHi) imaging, pHrodo Green, IL-13-stimulated BEAS-2Bs; settings: up to 1 h after IL-13, spectrofluorometry
Procedure: The pH-sensitive dye, pHrodo® Green AM intracellular pH indicator (Life Technologies) that increases its fluorescence with decreasing pHi was used (ref 39; incorporated by reference in its entirety). Cells cultured in glass bottom microwell dishes (MatTek, Ashland, Mass.) were pre-treated with omeprazole or vehicle prior to 6 h IL-13 stimulation. Then cells were incubated with dye (5 μM) with live cell imaging solution (Life Technologies) at 37° C. for 30 minutes per manufacturer's instructions. Spinning disk confocal microscopy for live cells imaging was performed with Andor XDi Revolution (Andor Technologies, Belfast, UK). Fluorescence intensity was measured in 150 cells using Image J software (National Institutes of Health, Bethesda, Md.). For kinetic experiments, fluorescence intensity of cells cultured in 96-well plates with omeprazole, SCH-28080 or matched vehicle was measured at various times before and after IL-13 stimulation up to 1 h using the SpectraMax® Gemini EM Microplate Spectrofluorometer (Molecular devices, Sunnyvale, Calif.) at 485/538 nm (excitation/emission).

[3] = tested on: IFN-γ-induced CXCL-10 (IP-10); experiment: IFN-γ-induced CXCL10 (IP-10) mRNA expression in BEAS-2B cells; settings: PPI 5 μM 2 h, IFN-γ 10 ng/ml 6 h
Procedure: (§3) FIG. 9. […] Cells were pretreated with various PPIs for 2 h and stimulated for 6 h with IFN-γ (10 ng/ml), TNF (100 ng/ml) or IL-17 (50 ng/ml). IFN-γ-induced CXCL10 (IP-10), TNF-α-induced eotaxin-1, and IL-17-induced CXCL1 mRNA expression levels in total RNA from cells were measured by using real-time PCR. Data represent means±SEM compared with vehicle-treated/cytokine-stimulated cells. O, omeprazole; L, lansoprazole; R, rabeprazole; P, pantoprazole; E, esomeprazole all at 5 μM
as §1
(§4) mRNA levels of eotaxin-1, eotaxin-2, eotaxin-3, CXCL1, CXCL10, ATP12A, and ATP4A in total RNAs isolated from cells were measured using quantitative real-time PCR. Western blots were performed to assess total signal transducer and activator of transcription 6 (STATE), phosphorylated-STAT6 (pSTAT6) and ATP12A protein in whole cell lysates (ref. 38; incorporated by reference in its entirety).

TNF-α-induced eotaxin-1 = TNF-α-induced eotaxin-1 mRNA expression in BEAS-2B cells; settings: PPI 5 μM 2 h, TNF 100 ng/ml 6 h
Procedure: as §3, §1, §4

IL-17-induced CXCL-1 = experiment: IL-17-induced CXCL1 mRNA expression in BEAS-2B cells; settings: PPI 5 μM 2 h, IL-17 50 ng/ml 6 h
Procedure: as §3, §1, §4

[4] = tested on: IL-13-induced eotaxin-3 protein secretion in HNECs; experiment: IL-13-induced eotaxin-3 protein secretion in HNECs (ELISA)
Procedure: as §1, §2

pSTAT6 = experiment: IL-13-induced STAT6 phosphorylation in BEAS-2Bs (Western blot)
Procedure: FIGS. 6A-6D. Effects of omeprazole on IL-13-induced STAT6 phosphorylation and eotaxin-3 mRNA stability. FIG. 6A, In IL-13-stimulated BEAS-2Bs with omeprazole or vehicle, pSTAT6 and total STAT6 protein expression were measured by using Western blots. FIG. 6B, Semi-quantitative densitometry data for A (Mean±SEM, n=3-6). FIG. 6C, Experimental protocol for eotaxin-3 mRNA stability assessment using real-time PCR. FIG. 6D, Relative eotaxin-3 mRNA expression levels following treatment with actinomycin D and/or omeprazole. mRNA levels of eotaxin-1, eotaxin-2, eotaxin-3, CXCL1, CXCL10, ATP12A, and ATP4A in total RNAs isolated from cells were measured using quantitative real-time PCR. Western blots were performed to assess total signal transducer and activator of transcription 6 (STATE), phosphorylated-STAT6 (pSTAT6) and ATP12A protein in whole cell lysates (ref. 38; incorporated by reference in its entirety).

[5] = 5 μM omeprazole, 2 h pretreatment, IL-13 48 h

With `Cc1nc2c(OCc3ccccc3)cccn2c1CC#N` [SCH-28080] the “effect on IL-13-induced eotaxin-3 protein secretion” value (“effect” below) [1] was “significantly inhibited” and the “IL-13-induced intracellular alkalinization, kinetic studies” value [2] was “blunted”.
For `COc1ccc2nc([S@@+]([O-])Cc3ncc(C)c(OC)c3C)[nH]c2c1` [esomeprazole, S-5-methoxy-2-{(4-methoxy-3,5 dimethylpyridin-2-yl)methylsufinyl]-3H-benzoimidazole], the “effect” value [1] was “dose-dependent inhibitory effects”, the “IFN-γ-induced CXCL-10 (IP-10) mRNA expression” value [3] was “did not inhibit” and the “TNF-α-induced eotaxin-1 mRNA expression” value (TNF-α-induced eotaxin-1) was “did not inhibit”. The “IL-17-induced CXCL-1 mRNA expression” value (IL-17-induced CXCL-1) was “did not inhibit”.
For `Cc1c(OCC(F)(F)F)ccnc1C[S+]([O-])c1nc2ccccc2[nH]1` (stereo not shown) [lansoprazole], the “effect” value [1] was “dose-dependent inhibitory effects”, the “IFN-γ-induced CXCL-10 (IP-10) mRNA expression” value [3] was “did not inhibit” and the “TNF-α-induced eotaxin-1 mRNA expression” value (TNF-α-induced eotaxin-1) was “did not inhibit”. The “IL-17-induced CXCL-1 mRNA expression” value (IL-17-induced CXCL-1) was “did not inhibit”.
In the case of `COc1ccc2[nH]c([S+]([O-])Cc3ncc(C)c(OC)c3C)nc2c1` (stereo not shown) [omeprazole, 5- or 6-methoxy-2-{[(4-methoxy-3,5-dimethylpyridin-2-yl)methyl]sulfinyl}-1H-ben-zimidazole], the “lowest concentration significantly inhibiting IL-13-induced eotaxin-3 protein secretion” value [1] is reported as 5 µM, the “IL-13-induced eotaxin-3 protein secretion was reduced” value [1, 5] is reported as 57.9% and the “lowest concentration significantly inhibiting IL-13-induced eotaxin-3 protein secretion” value [4] is reported as 1 µM. The “IL-13-induced eotaxin-3 protein secretion was reduced” value [4, 5] was 37.1%, the “IFN-γ-induced CXCL-10 (IP-10) mRNA expression” value [3] was “did not inhibit” and the “TNF-α-induced eotaxin-1 mRNA expression” value (TNF-α-induced eotaxin-1) was “did not inhibit”. The “IL-17-induced CXCL-1 mRNA expression” value (IL-17-induced CXCL-1) was “did not inhibit” and the “IL-13-induced pSTAT6” value (pSTAT6) was “not significantly inhibited”.
For `COc1ccnc(C[S+]([O-])c2nc3ccc(OC(F)F)cc3[nH]2)c1OC` (stereo not shown) [pantoprazole], the “IFN-γ-induced CXCL-10 (IP-10) mRNA expression” value [3] was “did not inhibit”, the “TNF-α-induced eotaxin-1 mRNA expression” value (TNF-α-induced eotaxin-1) was “did not inhibit” and the “IL-17-induced CXCL-1 mRNA expression” value (IL-17-induced CXCL-1) was “did not inhibit”.
`COCCCOc1ccnc(C[S+]([O-])c2nc3ccccc3[nH]2)c1C` (stereo not shown) [rabeprazole, 2-([4-(3-methoxypropoxy)-3-methylpyridin-2-yl]methylsulfinyl)-1H-benzo(d)-imidazole] was tested, and the “effect” value [1] was “dose-dependent inhibitory effects”, the “IFN-γ-induced CXCL-10 (IP-10) mRNA expression” value [3] was “did not inhibit” and the “TNF-α-induced eotaxin-1 mRNA expression” value (TNF-α-induced eotaxin-1) was “did not inhibit”. For the same compound, the “IL-17-induced CXCL-1 mRNA expression” value (IL-17-induced CXCL-1) was “did not inhibit”.
